# Experimental data reported in patent US6919374B1, “Viscosity modulating substance and use thereof” (Oklahoma Medical Research Foundation, priority 1999, dated 2005).
# Entries after “also recorded” stand apart in the source; their conditions may differ. Where a SMILES comes first, the peptide text is derived from it.
# Assays:
# [1] = system: whole blood of sickle cell patients; assay: Whole blood viscosity by RBC pipette method before and after administration of APM to sickle cell patients; assay type: in vivo; conditions: for blood viscosity after treatment: baseline vs 120 minutes post-treatment, APM 1.5, 3 or 6 mg/kg body weight
# Method: Blood samples were obtained from ten patients having homozygous HgBss disease or heterozygous Hgbsc disease before and after a blinded administration of APM at 1.5 (low dose), 3 (medium dose), or 6 (high dose) milligrams per kilogram body weight.
# Viscosity determinations using the RBC pipette method of Wright and Jenkins (1970, Blood 36:516) were made on each blinded whole blood sample before and 120 minutes after blinded administration of APM. Each measurement was made in triplicate. Control viscosity measurements using saline and water for each patient and normal whole blood were also made to validate the viscosity measurements.
# (§1) To measure viscosity, 1.01 cc of the test fluid, i.e., either water, saline or blood, was drawn into an RBC pipette using a 50 cc syringe attached via rubber tubing to the top of the RBC pipette. Using a constant pressure of 20 mm by maintaining the pressure with visual feedback and hand pressure, the amount of time it took for the test fluid to drip out of the RBC pipette was measured with a stopwatch. Each measurement was made in triplicate. Changes in viscosity from baseline for patient blood samples were recorded and compared to normal controls.
# [2] = clinical trial; osteo- and mixed osteo- and rheumatoid arthritis; cited from earlier work
# [3] = system: sickle cells in HgBss blood; assay: Metabisulfite slide test for sickling after APM given orally; assay type: in vivo, patients
# Method: For comparative purposes, the number of sickle cells relative to the number of normal cells was obtained at 0, 30, 60, 120, 240, 480, and 1440 minutes after administration of APM according to the method given in Example 2.
# Blood was drawn before and 120 minutes after treatment with 0, 1.5, 3, or 6 milligrams APM per kilogram body weight in a blinded fashion from the ten patients into heparin tubes, stored in a refrigerator at approximately 10° C. and routinely tested within 36 hours of collection.
# Normal blood devoid of abnormal hemoglobin was used as a control. For each heparinized patient blood sample and the normal blood control, experimental samples were prepared containing 0.25 milliliters of normal saline and 0.25 milliliters of blood. […]
# To account for natural or non-induced sickling of the experimental samples, a baseline sickling count was obtained for each heparinized patient blood sample and the normal blood control. […] Photomicrographs were taken with a phase contrast microscope at 400 magnification, and the results were obtained from the photomicrographs as the number of sickle cells per 100 cells counted. This number of sickle cells per 100 cells counted was considered the baseline sickling count and was subtracted from the cell counts obtained with the metabisulfite induced samples. […]
# [4] = system: patient blood samples; assay: Whole blood viscosity after in vitro addition of APM to patient blood samples; assay type: cell-based; conditions: HgBss patients; samples 480 minutes post-treatment; 1 or 2 milligrams/milliliter APM in vitro
# Method: as §1
# (§2) Samples with high viscosity readings at 480 minutes or 1,440 minutes post-treatment, chosen to represent patients with a validated response to APM who were returning to normal, were divided and treated with an additional 0, 1, or 2 milligrams/milliliter APM in vitro, in an effort to measure whether a second inducible sickling response was possible and if a second response to the in vitro APM addition could be observed. The viscosity of each sample at 480 minutes post-treatment was measured.
# [5] = system: red blood cells containing HbS; conditions: WO 00/18418; cited from earlier work
# [6] = with the exception of patients suffering from phenylketonuria; cited from earlier work
# [7] = system: sickle cells in HgBss blood; assay: Sickling after in vitro addition of APM to patient blood; assay type: cell-based, patients
# Method: as §2
# Using metabisulfite to reduce HbS to the deoxy form (Daland, G. A. and Castle, W. B. 1948. J Lab Clin Med 33:1082-1088; Nelson, D. A. In Todd-Sanford-Davidsohn Clinical Diagnosis by Laboratory Methods, J. B. Henry, ed. (W.B. Saunders Co., Philadelphia, 1979, vol. 1, p. 1020), a baseline sickling test was run on each experimental sample. The sickling inducing agent was prepared fresh daily as follows: 10 milligrams metabisulfite in 1 milliliter isotonic saline. Multiple test slides were prepared for each experimental sample by adding approximately 300 microliters of the metabisulfite inducing agent to 50 microliters of well mixed blood and placing about 4 drops of the experimental sample onto the surface of a glass slide, placing a coverslip over the sample, and sealing the coverslip with a petroleum jelly bead to prevent oxygen from entering the sample. […]
smiles,measurement,setting,value
"COC(=O)[C@H](Cc1ccccc1)NC(=O)[C@@H](N)CC(=O)O [APM, N-L-alpha-aspartyl-L-phenylalanine 1-methyl ester] (H-Asp-Phe-OMe)",blood viscosity after treatment,[1]; HgBss patients,decreased; also recorded: reduces the viscosity
same,whole blood viscosity,[1]; in vivo,lowers whole blood viscosity
same,viscosity compared against Pirofsky's change in viscosity vs. hematocrit standard,[1]; patients with sickle cell disease (HgBss),decreased
same,viscosity compared against Pirofsky's change in viscosity vs. hematocrit standard,[1]; patients with sickle cell trait (Hbgsc),increased
same,blood viscosity after treatment,[1]; sbthal patients,decreased
same,pain and inflammation of arthritis,[2],alleviate the pain and inflammation
same,number of sickle cells,[3],reduces the number of sickle cells
same,"viscosity of blood samples after in vitro APM addition, compared to the control",[4],decreased; also recorded: reduces
same,capacity of red blood cells containing HbS to sickle with hypoxemia,[5],reduction
same,safety status,[6],generally regarded as safe
same,number of sickle cells,[7],reduces the number of sickle cells
